The test system of data set [1] is recurrent malignant glioma. Further details: method as in PMID 32436060. The settings on record: up to 500 mg BID; patients with recurrent malignant glioma; cited from earlier work.
Data set [2] can be described thus: In vitro dissolution of CY1-4 in artificial gastric fluid (pH 1.2) and artificial intestinal fluid (pH 6.8). It counts as physicochemical. On the procedure:
MSNM@CY1-4 (equivalent to 3 mg of CY1-4) was dispersed in 600 mL artificial gastric fluid (pH 1.2 containing 0.1% (v/v) Tween-80) or 600 mL artificial intestinal fluid (pH 6.8 containing 0.1% (v/v) Tween-80) at 37 °C and 100 rpm. Samples were taken at 0, 2, 5, 12, 20, 40, and 60 min. Each sample was filtered through a 0.22 μm filter membrane and determined by HPLC.

Data set [3] in a line: Solubility of CY1-4 (excess sample shaken in a 37 °C water bath for 48 h, HPLC). It counts as physicochemical. The settings on record: thermodynamic from solid. Here is the method:
The excess MSNM@CY1-4 was placed in deionized water and was shaken in a 37 °C water bath for 48 h. The supernatant was filtered after centrifugation at 10,000 rpm, and the filtrate was collected. The CY1-4 was measured using HPLC to calculate the solubility of CY1-4.

Data set [4] concerns unresectable metastatic melanoma. The settings on record: combined with Keytruda vs Keytruda alone; phase III, 2018; cited from earlier work.
On the set-up of data set [5]: method as in PMID 28053021. As to conditions: cited from earlier work.

We go through 3 molecules from article PMC11676189, “Improving the Anti-Tumor Effect of Indoleamine 2,3-Dioxygenase Inhibitor CY1-4 by CY1-4 Nano-Skeleton Drug Delivery System” (Journal of Functional Biomaterials, 2024).

Molecules are shown by their SMILES. ≈ marks a conversion by molar mass, not a printed value.

Broadly, the solubility is how much of the substance goes into solution per volume. Higher therefore signals much dissolved substance.

In the case of `O=C1CC(c2c[nH]c3ccc(F)cc23)C(=O)N1` (stereo not drawn) [PF-06840003], in data set [1], the Tolerability entry is “generally well tolerated”.

As to `O=C1c2cc([N+](=O)[O-])ccc2-n2c1nc1ncccc1c2=O` [CY1-4, 9-nitropyridine [2′,3′:4,5] pyrimido [1,2-α] indole-5,11-dione], the CY1-4 dissolved entry in data set [2] (artificial gastric fluid pH 1.2, 5 min) is on record as “about 6%”; in data set [2] (artificial intestinal fluid pH 6.8, 5 min), “about 4%”. Further, the “CY1-4 dissolved after the 5 min maximum (decreased to)” value is “about 1%” in data set [2] (artificial gastric fluid pH 1.2, after 5 min) and “about 1%” in data set [2] (artificial intestinal fluid pH 6.8, after 5 min). For the same molecule, the solubility at 48 h in data set [3] (deionized water, water) is less than 100 µg/mL; in data set [3] (deionized water, water, 48 h), 1.16 ± 0.08 µg/mL (≈ 3.94 µM); in data set [3] (pH 1.2 medium, pH 1.2, simulated gastric fluid, pH = 1.2), 1.36 ± 0.04 µg/mL (≈ 4.62 µM); in data set [3] (pH 6.8 medium, pH 6.8, aqueous buffer, pH = 6.8) it was 1.19 ± 0.09 µg/mL (≈ 4.04 µM).

As for `NS(=O)(=O)NCCNc1nonc1C(=NO)Nc1ccc(F)c(Br)c1` [Epacadostat], in data set [4], the Progression-free survival result was “failed to significantly improve the progression-free survival”. In addition, the Tolerability entry in data set [5] is recorded as “well tolerated”. Also, in data set [5] (dose of ≥100 mg BID), the “Inhibition of IDO1 activity” value was “could effectively inhibit the activity of IDO1”.
